# Patent publication US20030228263A1, “Propagermanium for treating myeloma bone disease and other bone disorders” (SurroMed, Inc., priority 2002, published 2003)
# B1: MIP-1α: CC chemokine macrophage inflammatory protein-1α, used as osteoclast stimulus (protein, UniProt P10147 24-92, looked up)
# C-C motif chemokine 3: SLAADTPTACCFSYTSRQIPQNFIADYFETSSQCSKPGVIFLTKRSRQVCADPSEEWVQKYVSDLELSA
# Columns and labels:
# [1] = tested on: human bone marrow cells stimulated with MIP-1α; assay: Formation of human osteoclasts (23c6-positive multinucleated cells) in long-term marrow cultures; assay type: cell-based; conditions: for increase in the number of osteoclasts formed over untreated marrow: 200 pg/ml MIP-1α or 10^−8 M 1,25-(OH)2D3 alone, 23c6-positive cells, about three weeks, FIG. 3
# Protocol: Human long-term marrow cultures were performed as described in D. E. Hughes et al., “Estrogen promotes apoptosis of murine osteoclasts mediated by TGF-β,” Nature Medicine 2: 1132-1136, 1996, which is incorporated herein by reference. Briefly, human bone marrow nonadherent mononuclear cells from normal volunteers were cultured at 10^6 cells/ml in α-minimum essential medium and 20% horse serum with or without 10^−8 M 1,25-(OH)2D3 (vitamin D), 200 pg/ml MIP-1α, 20 ng/ml anti-human MIP-1α antibody, and varying concentrations of propagermanium. Five wells of each of ten different culture conditions were prepared in a 96-well plate. Each well contained 10^5 cells and the desired combination of reagents. Half of the culture medium was changed weekly. After approximately three weeks, the cultures were harvested and stained with the 23c6 monoclonal antibody, which identifies the osteoclast vitronectin receptor, and the 23c6-positive multinucleated cells counted. The 23c6 assay is more specific than the TRAP assay (used in Example 1 for mouse osteoclasts) for human osteoclasts.
# Results are shown in FIG. 3, a plot of fold increase in osteoclasts over the number of osteoclasts formed in untreated marrow for each set of wells. Well conditions are indicated below the bars. Results are reported as the mean±S.E. for five replicate samples and were compared by Student's t test.
# monocytes = conditions: cited from earlier work
# macrophages = conditions: mouse, in vivo; cited from earlier work
# [2] = tested on: mouse bone marrow cells stimulated with MIP-1α; assay: Formation of mouse osteoclasts (TRAP staining) in bone marrow cultures; assay type: cell-based; conditions: 1 μg/ml propagermanium, two different concentrations of MIP-1α, with 10^−11 M vitamin D, FIG. 2
# Protocol: Bone marrow cells (10^6 cells/culture) from C57B1 mice were isolated and cultured for osteoclast-like multinucleated cell formation in the presence or absence of 1, 10, or 100 ng/ml MIP-1α, 10^−11 M 1,25-(OH)2D3 (vitamin D), and varying concentrations of anti-human MIP-1α antibody (20 or 100 ng/ml), anti-CCR1 receptor antibody (20 or 100 ng/ml), anti-CCR5 receptor antibody (20 or 100 ng/ml), and 1 μg/ml propagermanium. Twelve different culture compositions were each prepared in four wells of a 48-well plate. After approximately six or seven days, the cultures were stained for the enzyme tartrate-resistant acid phosphatase (TRAP), an enzyme secreted into the circulation by osteoclasts during bone resorption, using an acid phosphatase staining kit (Sigma). TRAP-positive multinucleated cells containing three or more nuclei (assumed to be osteoclasts) were counted with an inverted microscope. The readout can be either the total amount of TRAP (TRAP activity) or the number of osteoclasts.
Molecule,"number of osteoclasts formed in response to MIP-1α stimulation ([1]; 200 pg/ml MIP-1α, varying concentrations of propagermanium)","effect on osteoclast formation in response to vitamin D stimulation ([1]; 10^−8 M 1,25-(OH)2D3, varying concentrations of propagermanium)","inhibition of the effect of MIP-1α on osteoclast formation ([1]; highest dose of propagermanium, compared with 20 ng/ml anti-human MIP-1α antibody)",chemotactic response of monocytes to the CC chemokine MCP-1 (monocytes),direct interaction with the chemokine receptor CCR2 (monocytes),recruitment of macrophages into the liver (macrophages),reduction of the number of osteoclasts formed [2],increase in the number of osteoclasts formed over untreated marrow [1]
3-oxygermylpropionic acid polymer [Propagermanium],dose-dependent reduction,no effect,comparable to that of the anti-human MIP-1α antibody,inhibit,did not appear to interact directly,suppress,greater than a factor of four,–
"C=C1/C(=C\C=C2/CCC[C@]3(C)[C@@H]([C@H](C)CCCC(C)(C)O)CC[C@@H]23)C[C@@H](O)C[C@@H]1O [vitamin D, 1,25-(OH)2D3]",–,–,–,–,–,–,–,greater than two-fold increase
B1,–,–,–,–,–,–,–,greater than two-fold increase
